# Read-outs that look alike come from different tables or passages of the source.
# Legend:
# [1] = biological target: piglet hippocampal 5-HT4 receptors (Sus scrofa, UniProt Q6Q253); assay: Binding to piglet hippocampal 5-HT4 receptors (125I-SB-207710); settings: for pKi: inhibition of 125I-SB-207710 binding in hippocampus
# [2] = system: large bowel motility and fluid secretion; assay: Faecal pellet output and fluid content in conscious fed mice (normal and 5-HTP-treated); format: in vivo, mouse
# Text: 2) Antagonism in Conscious Fed Mice
# A model was developed to examine the effect of 5-HT4 receptor antagonists on large bowel motility (faecal pellet output, FPO) and fluid secretion (pellet wet/dry weight) during `fed` conditions. The antagonists are studied in normal mice (to determine adverse effects, eg constipation)and in mice with functional diarrhoea caused by 5-HTP [Banner S E, Smith M I, Bywater D and Sanger G J (1993), Br J Pharmacol, 110, 17 P, and Banner S E, Smith M I and Sanger G J (1993) Br J Pharmacol; 110, 135 P]. Faecal pellets were collected at 10 min intervals so that their number and wet/dry weights could be determined.
# 5-HT4 receptor [3] = biological target: T1, 5-HT4 receptor (Cavia porcellus, UniProt O70528); assay: Guinea pig colon: 5-HT-evoked contraction of longitudinal muscle-myenteric plexus preparations
# Experimental: (§1) In some experiments, this tissue was dosed alternately with an approximately equi-effective concentration of the nicotine receptor stimulant, dimethylphenylpiperazinium (DMPP).
# nicotine receptor = assay: Guinea pig colon: DMPP-evoked contraction (nicotinic receptor agonist); settings: 10^-5 M
# Experimental: as §1
# 5-HT4 receptor [4] = biological target: 5-HT4 receptor (Sus scrofa, UniProt Q6Q253); assay: Piglet atria spontaneous beating screen
# Experimental: Compounds are tested in the piglet atria spontaneous beating screen (Naunyn-Schmiedeberg's Arch. Pharmacol 342, 619-622).
# 5-HT4 receptor [5] = biological target: T2, 5-HT4 receptor (Rattus norvegicus, UniProt Q62758); assay: Rat oesophagus: relaxation of carbachol-contracted tunica muscularis mucosae
# T2 construct: The inner smooth muscle tube of the muscularis mucosae is isolated; from tissue; host or cells: rat oesophageal tunica muscularis mucosae
# Text: Rat oesophageal tunica muscularis mucosae is set up according to Baxter et. al. Naunyn-Schmiedeberg's Arch. Pharmacol., 343, 439-446 (1991). […] In contrast to the guinea-pig colon model, where the 5-HT4 receptor is neuronally-located, the receptor here is located on the smooth muscle.
# 5-HT1D = assay: Receptor binding studies: 5-HT1D
# Alpha1 = assay: Receptor binding studies: Alpha1
# [6] = system: 5-HT-induced gastric motility; assay: 5-HT-induced motility in dog gastric pouch; format: in vivo; settings: for ED50: Canis lupus familiaris, read-out: ID50 (contractile response to 5-HT)
# Experimental: 4) 5-HT-Induced Motility in Dog Gastric Pouch
# Compounds are tested for inhibition in the in vivo method described in "Stimulation of canine motility by BRL 24924, a new gastric prokinetic agent", Bermudez et al, J. Gastrointestinal Motility, 1990, 2(4), 281-286.
# Dogs with previously prepared Heidenhain gastric pouches are fasted overnight.
# 5-HT4 receptors = assay: Antagonism of 5-HT-evoked tachycardia in anaesthetised piglets; format: in vivo, piglet
# Experimental: 5) Antagonism in Anaesthetised Piglets
# In these experiments, antagonism is assessed against the 5-HT-evoked tachycardia, a response that is mediated by the 5-HT4 receptors. All experiments were in 2-5 day old piglets in which the vagi were sectioned.
# 5-HT4 receptor [7] = biological target: T1, 5-HT4 receptor; assay: Distension-evoked peristalsis in guinea pig isolated ileum; settings: 5-HT 10^-7 M
# Experimental: 1) Distension-Evoked Peristalsis in Guinea Pig Isolated Ileum
# The oral end was connected to a Krebs-filled reservoir and the aboral end to a vertical column open to the air. The intraluminal filling pressure (oral end) and peristaltic pressure (aboral end) were monitored. The threshold pressure for peristalsis was determined by raising the reservoir at increments of 0.5 cm H2 O at 1 min intervals until peristalsis occurred.
# anxiolytic activity = assay: Social interaction test in rats; format: in vivo, rat; settings: 0.01, 1, 10 mg.kg^-1
# Experimental: IN VIVO TESTING FOR ANXIOLYTIC ACTIVITY
# Social Interaction Test in Rats
# Rats (male, Sprague Dawleys, Charles River, 250-300 g) are housed in groups of eight in a holding room for 5 days. They are then housed singly in a room adjacent to the experimental room for 4 days prior to the experimental day. On the experimental day rats are administered vehicle, test compound or a benzodiazepine anxiolytic, chlordiazepoxide, p.o. in pairs (n=8-16), at 15 minute intervals beginning at 10.00 a.m. […] The box is made of white perspex 54 cm×37 cm×26 cm with a transparent perspex front side and no lid. The floor is divided up into 24 squares and the box is brightly lit (115 lux). Active social interactive behaviours (grooming, sniffing, climbing over or under, following, biting, mounting and boxing) are scored blind for the next 15 min by remote video monitoring to give total interaction scores. The number of squares crossed by each rat is also scored and summed. After the end of each test the box is carefully wiped.
# 5-HT4 receptor [8] = biological target: T1, 5-HT4 receptor
# Experimental: Male guinea-pigs, weighing 250-400 g are used. Longitudinal muscle-myenteric plexus preparations, approximately 3 cm long, are obtained from the distal colon region. These are suspended under a 0.5 g load in isolated tissue baths containing Krebs solution bubbled with 5% CO2 in O2 and maintained at 37° C. In all experiments, the Krebs solution also contains methiothepin 10^-7 M and granisetron 10^-6 M to block effects at 5-HT1, 5-HT2 and 5-HT3 receptors.
# T1 sequence (O70528 whole entry): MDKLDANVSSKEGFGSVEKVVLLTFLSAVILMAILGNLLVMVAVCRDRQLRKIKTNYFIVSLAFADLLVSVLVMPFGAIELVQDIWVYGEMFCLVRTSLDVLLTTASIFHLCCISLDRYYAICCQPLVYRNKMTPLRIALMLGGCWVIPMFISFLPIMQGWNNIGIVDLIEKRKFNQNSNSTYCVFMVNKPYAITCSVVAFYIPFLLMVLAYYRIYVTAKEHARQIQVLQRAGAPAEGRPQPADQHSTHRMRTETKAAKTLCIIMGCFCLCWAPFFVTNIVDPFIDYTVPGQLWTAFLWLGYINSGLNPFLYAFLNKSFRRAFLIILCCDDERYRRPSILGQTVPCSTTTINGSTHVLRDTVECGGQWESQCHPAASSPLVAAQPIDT
# piglet hippocampal 5-HT4 receptors, sequence (Q6Q253 1-402): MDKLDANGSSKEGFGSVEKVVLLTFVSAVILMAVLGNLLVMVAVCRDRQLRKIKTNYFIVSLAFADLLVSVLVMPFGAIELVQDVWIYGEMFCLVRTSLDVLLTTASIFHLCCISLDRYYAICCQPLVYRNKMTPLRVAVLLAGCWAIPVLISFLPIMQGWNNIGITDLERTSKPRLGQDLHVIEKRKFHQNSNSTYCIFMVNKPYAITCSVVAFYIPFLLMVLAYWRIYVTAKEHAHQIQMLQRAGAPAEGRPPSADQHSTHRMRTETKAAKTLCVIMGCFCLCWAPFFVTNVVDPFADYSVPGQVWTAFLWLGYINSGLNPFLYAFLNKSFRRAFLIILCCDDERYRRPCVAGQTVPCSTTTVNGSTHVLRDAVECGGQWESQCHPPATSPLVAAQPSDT
# T2 sequence (Q62758 whole entry): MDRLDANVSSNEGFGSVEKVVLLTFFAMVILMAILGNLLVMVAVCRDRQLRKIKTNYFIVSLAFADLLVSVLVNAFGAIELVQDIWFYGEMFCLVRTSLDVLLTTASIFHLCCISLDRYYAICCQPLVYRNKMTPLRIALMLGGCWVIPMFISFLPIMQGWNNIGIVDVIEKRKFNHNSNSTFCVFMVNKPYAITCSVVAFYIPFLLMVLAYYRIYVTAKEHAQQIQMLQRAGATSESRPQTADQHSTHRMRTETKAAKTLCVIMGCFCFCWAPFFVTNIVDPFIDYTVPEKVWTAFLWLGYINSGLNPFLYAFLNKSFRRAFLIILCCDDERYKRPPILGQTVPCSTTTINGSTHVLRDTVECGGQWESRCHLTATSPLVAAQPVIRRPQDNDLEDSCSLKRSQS
# 5-HT4 receptor (Sus scrofa, UniProt Q6Q253), sequence (Q6Q253 1-402): as the sequence (Q6Q253 1-402) above
smiles,measurement,setting,value
"NCCc1c[nH]c2ccc(O)cc12 [5-HT, 5-hydroxytryptamine]",pKi,[1],6.6±0.1
"NC(Cc1c[nH]c2ccc(O)cc12)C(=O)O (stereo not shown) [5-HTP, reference compound]",effect of 5-HTP on FPO,[2]; 10 mgkg^-1 s.c.,increased FPO above control levels
same,time of maximum effect of 5-HTP,[2]; 10 mgkg^-1 s.c.,20 min
same,effect of 5-HTP on faecal output,[2]; higher doses than 10 mg kg^-1 s.c.,evoked watery diarrhoea and unformed faecal output
"CCCCN1CCC(COC(=O)c2c3n(c4ccccc24)CCCO3)CC1 [E1, (1-^n Butyl-4-piperidyl)methyl-3,4-dihydro-2 H-[1,3]oxazino[3,2-a]indole-10-Carboxylate]",5-HT4 receptor antagonist activity (in words),5-HT4 receptor [3]; Y is O,particularly good activity
"O=C(OCC1CCN2CCCCC2C1)c1c2n(c3ccccc13)CCCO2 (stereo not shown) [E2, eq-Quinolizidin-2-ylmethyl-3,4-dihydro-2 H-[1,3]oxazino[3,2-a]indole-10-Carboxylate]",5-HT4 receptor antagonist activity (in words),5-HT4 receptor [3]; Y is O,particularly good activity
"CCCCN1CCC(CNC(=O)c2c3n(c4ccccc24)CCCO3)CC1 [E3, N-[(1-^n Butyl-4-piperidyl)methyl]-3,4-dihydro-2 H-[1,3]oxazino[3,2-a]indole-10-Carboxamide]",5-HT4 receptor antagonist activity (in words),5-HT4 receptor [3]; Y is NH,particularly good activity
"O=C(OCCN1CCCCC1)c1c2n(c3ccccc13)CCCO2 [E4, 2-(1-Piperidyl)ethyl 3,4-dihydro-2 H-[1,3]oxazino[3,2-a]indole-10-Carboxylate]",5-HT4 receptor antagonist activity (in words),5-HT4 receptor [3]; Y is O,particularly good activity
"CCCCN1CCC(COC(=O)c2c3n(c4ccccc24)CCO3)CC1 [E6, (1-^n Butyl-4-piperidyl)methyl-2,3-dihydrooxazolo[3,2-a]indole-9-Carboxylate]",5-HT4 receptor antagonist activity (in words),5-HT4 receptor [3]; Y is O,particularly good activity
"CCCCN1CCC(COC(=O)c2c3n(c4ccccc24)CCCS3)CC1 [E8, (1-^n Butyl-4-piperidyl)methyl-3,4-dihydro-2 H-[1,3]thiazino[3,2-a]indole-10-Carboxylate]",5-HT4 receptor antagonist activity (in words),5-HT4 receptor [3]; Y is O,particularly good activity
"O=C(OCC1CCN(Cc2ccccc2)CC1)c1c2n(c3ccccc13)CCCO2 [E15, (1-Benzyl-4-piperidyl)methyl-3,4-dihydro-2 H-[1,3]oxazino[3,2-a]indole-10-Carboxylate]",5-HT4 receptor antagonist activity (in words),5-HT4 receptor [3]; Y is O,particularly good activity
"O=C(NCC1CCN(Cc2ccccc2)CC1)c1c2n(c3ccccc13)CCCO2 [E20, N-[(1-Benzyl-4-piperidyl)methy] 3,4-dihydro-2 H-[1,3]oxazino[3,2-a]indole-10-Carboxamide]",5-HT4 receptor antagonist activity (in words),5-HT4 receptor [3]; Y is NH,particularly good activity
"O=C(NCC1CCN(CC2CCCCC2)CC1)c1c2n(c3ccccc13)CCCO2 [E23, N-[(1-Cyclohexylmethyl-4-piperidyl)methyl] 3,4-dihydro-2 H-[1,3]oxazino[3,2-a]indole-10-Carboxamide]",5-HT4 receptor antagonist activity (in words),5-HT4 receptor [3]; Y is NH,particularly good activity
"CCCCN1CCC(COC(=O)c2c3n(c4ccc(F)cc24)CCCO3)CC1 [E27, (1-^n Butyl-4-piperidyl)methyl 8-fluoro-3,4-dihydro-2 H-[1,3]oxazino[3,2-a]indole-10-Carboxylate]",5-HT4 receptor antagonist activity (in words),5-HT4 receptor [3]; Y is O,particularly good activity
"CCCCN1CCC(CNC(=O)c2c3n(c4ccc(F)cc24)CCCO3)CC1 [E28, N-[(1-^n Butyl-4-piperidyl)methyl] 8-fluoro-3,4-dihydro-2 H-[1,3]oxazino[3,2-a]indole-10-Carboxamide]",5-HT4 receptor antagonist activity (in words),5-HT4 receptor [3]; Y is NH,particularly good activity
"O=C(NCC1CCN(CCCOc2ccccc2)CC1)c1c2n(c3ccccc13)CCCO2 [E47, N-[(1-(3-Phenoxypropyl)-4-piperidinyl)methyl] 3,4-dihydro-2 H-[1,3]oxazino[3,2-a]indole-10-Carboxamide]",5-HT4 receptor antagonist activity (in words),5-HT4 receptor [3]; Y is NH,particularly good activity
"CCCCN1CCC(CNC(=O)c2c3n(c4ccccc24)CCCO3)CC1 [SB-207266-A, N-[(1-^n Butyl-4-piperidyl)methyl]-3,4-dihydro-2 H-[1,3]oxazino[3,2-a]indole-10-Carboxamide]",Kb,5-HT4 receptor [3],0.0398 nM
same,effect on maximum response to 5-HT,5-HT4 receptor [3]; 3×10^-8 M and above,the maximum response to 5-HT was reduced in a concentration-dependent manner
same,effect on 5-HT concentration-response curve,"5-HT4 receptor [3]; 10^-10-10^-8 M, n=6",parallel rightward shift of the 5-HT curve with no effect on the maximum response
same,slope (pA2),"5-HT4 receptor [3]; 10^-10-10^-8 M, n=6",not significantly different from unity
same,recovery time of responses to 5-HT,"5-HT4 receptor [3]; at the highest concentrations (which reduce maximum 5-HT-evoked contractions), washout",≤ 90 min
same,reversibility of antagonism,5-HT4 receptor [3]; upon washout,could be reversed upon washout
same,effect on DMPP-evoked contractions,nicotine receptor,unaffected
same,effect on 5-HT curve,5-HT4 receptor [4]; 10^-7 M,shifted the curve to the right with an apparent reduction in the maximum response
same,estimated pKb (-log10 Kb),5-HT4 receptor [4]; n=2,10.1
same,antagonism of 5-HT response (in words),5-HT4 receptor [5],concentration-dependently acted as a non-surmountable antagonist and reduced the maximum response evoked by 5-HT
same,Kb,"5-HT4 receptor [5]; from data with the lowest effective concentration, no reliable pA2 estimate possible",≤ 0.1 nM
same,pKi,[1],9.48±0.06
same,pKd,5-HT1D,< 5.00
same,pKd,Alpha1,< 5.52
same,duration of action (in words),[6]; 1 and 3 ug.kg^-1 iv,variable and apparently reversible
same,duration of antagonism,"[6]; 10 and 100 ug.kg^-1 iv, longer than the experiment",> 285 min
same,ED50,[6]; iv,1.3 µg/kg
same,ED50,[6]; po,9.6 µg/kg
same,effect on basal motility,"[6]; any dose, iv and po",no effect
same,antagonism of 5-HT-evoked tachycardia,"5-HT4 receptors; 0.1, 0.3 or 1.0 ugkg^-1 iv, n=2 each",antagonised the 5-HT-evoked tachycardia in a dose-dependent manner
same,recovery from antagonism,"5-HT4 receptors; 0.3, 1.0 ugkg^-1 i.v., over the duration of the experiment",incomplete
same,preparations in which the sensitising effect of 5-HT was abolished,5-HT4 receptor [7]; 10^-9 M,3/3
same,tissues in which the action of 5-HT was antagonised,5-HT4 receptor [7]; 10^-10 M,3/4
same,tissues in which there was no ability to antagonise the sensitising effect of 5-HT,5-HT4 receptor [7]; 10^-11 M,4/4
same,duration of action,"[2]; 100 ug.kg^-1, dosed 2.5 hours before 5-HTP",effective
same,duration of action,"[2]; 100 ug.kg^-1, pre-dosed 6 hours before 5-HTP",without effect
same,effect on 5-HTP-evoked increase in FPO,"[2]; 0.1 to 10 ug.kg^-1 s.c., 5-HTP 10 mg kg^-1 s.c.",dose-dependently prevented the 5-HTP-evoked increase in FPO
same,effect on fluid secretion evoked by 5-HTP,[2]; 5-HTP 10 mg kg^-1 s.c.,prevented
same,effect on watery diarrhoea caused by 5-HTP,[2]; 5-HTP 50 mg.kg^-1,reduce the watery diarrhoea
same,"effect on the effects of 5-HTP, oral","[2]; 10-1000 ug.kg^-1 po, 30 min prior to 5-HTP",greatly reduced the effects of 5-HTP
same,effect on FPO or fluid content in normal mice,"[2]; s.c. or po, not pretreated with 5-HTP",did not affect either FPO or their fluid content in normal mice
same,locomotion during the test,anxiolytic activity,not accompanied by any alteration in locomotion
same,total interaction scores,anxiolytic activity; 1 h after administration,Significantly increased total interaction scores
same,effect on BIMU 1 concentration-response,5-HT4 receptor [8],"reduced the maximum response to BIMU 1, without causing a prior right-ward shift in the concentration-response curve"
CCCCN1CCC(COC(=O)c2cc(I)c(N)c3c2OCCO3)CC1 [SB-207710],Bmax,"[1]; piglet hippocampal membranes, n=4",16±3 fmol/mg protein
CN1C2CCCC1CC(NC(=O)c1nn(C)c3ccccc13)C2 (stereo not shown) [granisetron],pKi,[1],below 5

# From patent US5852014A, “Condensed indole derivatives as 5HT4 -receptor antagonists” (SmithKline Beecham p.l.c., priority 1992, dated 1998)
